This is an account of results in patent publication US11530219B2, “Ligands to cereblon (CRBN)” (DANA-FARBER CANCER INSTITUTE, INC., priority 2018, dated 2022).

Read-outs that look alike come from different tables or passages of the source.

For one assay, the target named is DDB1ΔB-CRBN (Homo sapiens (Human), UniProt Q96SW2). In words: Atto565-Lenalidomide displacement assay (fluorescence polarization, CRBN binding). To be noted: for IC50: 10 nM Atto565-Lenalidomide, 100 nM DDB1ΔB-CRBN, n=2; for Ki: calculated from IC50 with probe Kd of 40 nM, competitive model. As for the experimental part:
Various inventive compounds were analyzed for cereblon binding. […] Compound titrations were incubated for 60 min at room temperature. The change in fluorescence polarization was monitored using a PHERAstar® FS microplate reader (BMG Labtech) for 1 h in 120s cycles.

The target in the next assay is CRBN (Homo sapiens (Human), UniProt Q96SW2). In words: Cellular CRBN dBET6 displacement assay (BRD4BD2-GFP/mCherry reporter cells). In kind it is cell-based. To be noted: 100 nM dBET6, 5 hours. The protocol:
BRD4BD2 were subcloned into mammalian pcDNA5/FRT Vector (Ampicillin and Hygromycin B resistant) modified to contain MCS-eGFP-P2A-mCherry. […] Following a 2-3 passage cycle, FACS (FACSAria™ II, BD) was used to enrich for cells expressing eGFP and mCherry.
Signal from minimal 3000 events per well was acquired and the eGFP and mCherry florescence monitored. Data was analyzed using FlowJo® (FlowJo®, LCC). […] The eGFP protein abundance relative to mCherry was then quantified as a ten-fold amplified ratio for each individual cell using the formula: 10×eGFP/mCherry. The median of the ratio was then calculated per set, normalized to the median of the DMSO ratio.
This assay provided a readout of cellular CRBN binding impacted by the permeability of the molecule tested.

Where [1] appears, read: Flip-In 293 cells stably expressing BRD4BD2-GFP, read-out: Cellular CRBN-BRD4 dBET6 displacement EC50.

DDB1ΔB-CRBN, sequence (Q96SW2 whole entry, stated change not applied): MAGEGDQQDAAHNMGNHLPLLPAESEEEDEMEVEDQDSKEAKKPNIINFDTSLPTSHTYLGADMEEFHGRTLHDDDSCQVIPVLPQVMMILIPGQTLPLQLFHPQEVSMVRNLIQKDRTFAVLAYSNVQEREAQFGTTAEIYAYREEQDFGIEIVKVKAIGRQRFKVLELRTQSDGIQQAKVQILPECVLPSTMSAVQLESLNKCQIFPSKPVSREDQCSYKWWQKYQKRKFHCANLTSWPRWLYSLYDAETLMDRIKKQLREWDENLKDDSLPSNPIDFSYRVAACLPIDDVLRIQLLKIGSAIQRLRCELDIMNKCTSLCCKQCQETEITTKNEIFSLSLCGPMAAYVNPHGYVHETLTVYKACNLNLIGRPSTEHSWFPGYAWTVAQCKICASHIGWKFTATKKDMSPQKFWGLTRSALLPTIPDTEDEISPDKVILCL
CRBN, sequence (Q96SW2 whole entry): as the sequence (Q96SW2 whole entry, stated change not applied) above

Take `O=C1CCC(N2Cc3c(NC(=O)CNc4ccnc(Nc5ccccc5F)n4)cccc3C2=O)C(=O)N1` (centres unmarked) [Compound 1, N-(2-(2,6-dioxopiperidin-3-yl)-1-oxoisoindolin-4-yl)-2-((2-((2-fluorophenyl)amino)pyrimidin-4-yl)amino)acetamide]: on DDB1ΔB-CRBN, the half-inhibitory concentration (IC50) turned out to be 29.7 µM and the inhibition constant (Ki) is 8.5 µM.
With `O=C1CCC(N2Cc3c(NC(=O)CNc4ccnc(Nc5ccc6c(c5)CCC6)n4)cccc3C2=O)C(=O)N1` (centres unmarked) [Compound 2, 2-((2-((2,3-dihydro-1H-inden-5-yl)amino)pyrimidin-4-yl)amino)-N-(2-(2,6-dioxopiperidin-3-yl)-1-oxoisoindolin-4-yl)acetamide], on DDB1ΔB-CRBN, the IC50 is 47.5 µM and the inhibition constant Ki was 13.6 µM. The concentration for a half-maximal effect (EC50) at CRBN (setting [1]) turned out to be 47.9 µM.
Regarding `O=C1CCC(N2Cc3c(NC(=O)CNc4ccnc(NCc5ccc6c(c5)OCO6)n4)cccc3C2=O)C(=O)N1` (centres unmarked) [Compound 3, 2-((2-((benzo[d][1,3]dioxol-5-ylmethyl)amino)pyrimidin-4-yl)amino)-N-(2-(2,6-dioxopiperidin-3-yl)-1-oxoisoindolin-4-yl)acetamide], on DDB1ΔB-CRBN, the IC50 was found to be 12.5 µM and the Ki was 13.6 µM.
As to `O=C1CCC(N2Cc3c(NC(=O)CNc4ccnc(N5CCC[C@H]5CO)n4)cccc3C2=O)C(=O)N1` (stereo partly drawn) [Compound 4, N-(2-(2,6-dioxopiperidin-3-yl)-1-oxoisoindolin-4-yl)-2-((2-((S)-2-(hydroxymethyl)pyrrolidin-1-yl)pyrimidin-4-yl)amino)acetamide], at DDB1ΔB-CRBN, the IC50 stood at 8.5 µM and the Ki was 2.4 µM.
The like results for `O=C1CCC(N2Cc3c(NC(=O)CNc4ccnc(Nc5ccc6c(c5)OCO6)n4)cccc3C2=O)C(=O)N1` (centres unmarked) [Compound 5, 2-((2-(benzo[d][1,3]dioxol-5-ylamino)pyrimidin-4-yl)amino)-N-(2-(2,6-dioxopiperidin-3-yl)-1-oxoisoindolin-4-yl)acetamide] were, in that order, 42.5 µM and 12.2 µM.
Take `O=C1CCC(N2Cc3c(NC(=O)CNc4ccnc(NCCCN5CCCC5=O)n4)cccc3C2=O)C(=O)N1` (centres unmarked) [Compound 6, N-(2-(2,6-dioxopiperidin-3-yl)-1-oxoisoindolin-4-yl)-2-((2-((3-(2-oxopyrrolidin-1-yl)propyl)amino)pyrimidin-4-yl)amino)acetamide]: at DDB1ΔB-CRBN, the IC50 amounted to 22.9 µM and the Ki was 6.5 µM.
As to `COc1ccc(Nc2nccc(NCC(=O)Nc3cccc4c3CN(C3CCC(=O)NC3=O)C4=O)n2)cc1` (centres unmarked) [Compound 7, N-(2-(2,6-dioxopiperidin-3-yl)-1-oxoisoindolin-4-yl)-2-((2-((4-methoxyphenyl)amino)pyrimidin-4-yl)amino)acetamide], at DDB1ΔB-CRBN, the concentration for half-maximal inhibition (IC50) was found to be 38.9 µM and the Ki is 11.1 µM.
The like results for `COc1cccc(-c2nccc(NCC(=O)Nc3cccc4c3CN(C3CCC(=O)NC3=O)C4=O)n2)c1` (centres unmarked) [Compound 9, N-(2-(2,6-dioxopiperidin-3-yl)-1-oxoisoindolin-4-yl)-2-((2-(3-methoxyphenyl)pyrimidin-4-yl)amino)acetamide] were, in that order, 22.1 µM and 6.3 µM.
In the case of `COc1ccc(OC)c(-c2nccc(NCC(=O)Nc3cccc4c3CN(C3CCC(=O)NC3=O)C4=O)n2)c1` (centres unmarked) [Compound 10, 2-((2-(2,5-dimethoxyphenyl)pyrimidin-4-yl)amino)-N-(2-(2,6-dioxopiperidin-3-yl)-1-oxoisoindolin-4-yl)acetamide], at DDB1ΔB-CRBN, the IC50 was determined as 18.9 µM and the Ki is 5.4 µM.
In the same order, the values of `O=C1CCC(N2Cc3c(NC(=O)CNc4ccnc(-c5ccc(F)cc5)n4)cccc3C2=O)C(=O)N1` (centres unmarked) [Compound 11, N-(2-(2,6-dioxopiperidin-3-yl)-1-oxoisoindolin-4-yl)-2-((2-(4-fluorophenyl)pyrimidin-4-yl)amino)acetamide] are 14.7 µM and 4.2 µM.
The like results for `CC(=O)c1ccc(-c2nccc(NCC(=O)Nc3cccc4c3CN(C3CCC(=O)NC3=O)C4=O)n2)cc1` (centres unmarked) [Compound 12, 2-((2-(4-acetylphenyl)pyrimidin-4-yl)amino)-N-(2-(2,6-dioxopiperidin-3-yl)-1-oxoisoindolin-4-yl)acetamide] were, in that order, 13.8 µM and 3.9 µM.
Regarding `O=C1CCC(N2Cc3c(NC(=O)CNc4ccnc(-c5cc6ccccc6o5)n4)cccc3C2=O)C(=O)N1` (centres unmarked) [Compound 13, 2-((2-(benzofuran-2-yl)pyrimidin-4-yl)amino)-N-(2-(2,6-dioxopiperidin-3-yl)-1-oxoisoindolin-4-yl)acetamide], at DDB1ΔB-CRBN, the IC50 stood at 28.9 µM and the inhibition constant (Ki) was 8.3 µM.
For the compound `O=C1CCC(N2Cc3c(NC(=O)CNc4ccnc(N5CCC[C@@H]5CO)n4)cccc3C2=O)C(=O)N1` (stereo partly drawn) [Compound 14, N-(2-(2,6-dioxopiperidin-3-yl)-1-oxoisoindolin-4-yl)-2-((2-((R)-2-(hydroxymethyl)pyrrolidin-1-yl)pyrimidin-4-yl)amino)acetamide], on DDB1ΔB-CRBN, the IC50 is 1.6 µM and the Ki is 0.44 µM.
Turning to `COc1ccccc1Nc1nccc(NCC(=O)Nc2cccc3c2CN(C2CCC(=O)NC2=O)C3=O)n1` (centres unmarked) [Compound 15, N-(2-(2,6-dioxopiperidin-3-yl)-1-oxoisoindolin-4-yl)-2-((2-((2-methoxyphenyl)amino)pyrimidin-4-yl)amino)acetamide], at DDB1ΔB-CRBN, the IC50 amounted to 15.2 µM and the Ki was 4.3 µM.
Consider `O=C1CCC(N2Cc3c(NC(=O)CNc4ccnc(N5CCN(c6cccc(C(F)(F)F)c6)CC5)n4)cccc3C2=O)C(=O)N1` (centres unmarked) [Compound 16, N-(2-(2,6-dioxopiperidin-3-yl)-1-oxoisoindolin-4-yl)-2-((2-(4-(3-(trifluoromethyl)phenyl)piperazin-1-yl)pyrimidin-4-yl)amino)acetamide], for which, at DDB1ΔB-CRBN, the half-inhibitory concentration (IC50) worked out at 0.517 µM and the inhibition constant Ki was 0.13 µM.
As to `CN(c1ccccc1)c1nccc(NCC(=O)Nc2cccc3c2CN(C2CCC(=O)NC2=O)C3=O)n1` (centres unmarked) [Compound 17, N-(2-(2,6-dioxopiperidin-3-yl)-1-oxoisoindolin-4-yl)-2-((2-(methyl(phenyl)amino)pyrimidin-4-yl)amino)acetamide], at DDB1ΔB-CRBN, the IC50 worked out at 3.44 µM and the inhibition constant Ki was 0.97 µM.
Consider `O=C1CCC(N2Cc3c(Nc4ccnc(Nc5ccc6c(c5)CCCC6)n4)cccc3C2=O)C(=O)N1` (centres unmarked) [Compound 52, 3-(1-oxo-4-((2-((5,6,7,8-tetrahydronaphthalen-2-yl)amino)pyrimidin-4-yl)amino)isoindolin-2-yl)piperidine-2,6-dione], for which the 50% effective concentration (EC50) on CRBN (unit printed as 'M' in the text (Table 1 gives μM), read-out: Cellular CRBN engagement EC50) stood at 0.46 µM.
With `CC(C)n1cnc2c(Nc3cccc4c3CN(C3CCC(=O)NC3=O)C4=O)nc(Nc3ccc4c(c3)CCC4)nc21` (centres unmarked) [Compound 53, 3-(4-((2-((2,3-dihydro-1H-inden-5-yl)amino)-9-isopropyl-9H-purin-6-yl)amino)-1-oxoisoindolin-2-yl)piperidine-2,6-dione], on CRBN (setting [1]), the EC50 turned out to be 0.665 µM.

Broadly, the IC50 is the midpoint of a concentration-inhibition curve. Usually Ki stands for the equilibrium dissociation constant of an inhibitor or competing ligand from its target. Broadly, the EC50 is the concentration needed to bring the measured effect to its halfway point.
